Measurements: publication PMC8954350, “Non-Canonical Cannabinoid Receptors with Distinct Binding and Signaling Properties in Prostate and Other Cancer Cell Types Mediate Cell Death” (International Journal of Molecular Sciences, 2022)
Where “and” joins values, the source holds several entries; their conditions need not be identical. Equal entries are not always repeated. Entries after “also recorded” stand apart in the source; their conditions may differ. Where two headings read alike, the source gives them in different places. Marks after values point to notes of the source that are not given here.

How the values were obtained:
[1] = tested on: CBRs expressed in DU-145 membranes; format: binding, human
Description: The assay was conducted as previously detailed. […] All binding reactions were conducted in triplicate, in a final volume of 1 mL, and, following mixing, were incubated for 20 min in a 37 °C water bath to achieve equilibrium. After incubation, reactions were terminated by rapid vacuum filtration through Whatman GF/B glass fiber filters (Brandel; Gaithersburg, MD, USA), followed by three washes of 4 mls of ice-cold filtration buffer (50 mM Tris, pH 7.4, and 0.05% bovine serum albumin). Samples were punched out from filter papers into scintillation vials, to which 4 mls of ScintiverseTM-BDR cocktail scintillation fluid (Fisher Scientific; Hampton, NH, USA) was added. Filters were incubated at room temperature for 24 h in scintillation fluid, vortexed, and radioactivity (measured as DPMs) was quantified via a liquid scintillation spectrophotometer (Tri Carb 2100 TR Liquid Scintillation Analyzer, Packard Instruments, Meriden, CT, USA).
These experiments were conducted to screen well-characterized cannabinoid ligands with high affinity for canonical CB1 and/or CB2Rs for binding to CBRs expressed in prostate cancer cells lines, as detailed in [33]. […] All binding reactions were conducted in triplicate, in a final volume of 1 mL, and, following mixing, were incubated for 20 min in a 37 °C water bath to achieve equilibrium. After incubation, reactions were terminated by rapid vacuum filtration and processed for radioactivity, as detailed in Section 4.5.1.

[2] = target: CBRs expressed in DU-145 membranes; format: binding, human; remark: listed apart in the source
Description: (§1) The assay was performed as previously detailed. […] All binding reactions were conducted in triplicate, in a final volume of 1 mL, and, following mixing, were incubated for 20 min in a 37 °C water bath to achieve equilibrium. After incubation, reactions were terminated by rapid vacuum filtration and processed for radioactivity, as detailed in Section 4.5.1.
(§2) Curve-fitting and all statistical analyses were performed using GraphPad Prism® v8.0g (GraphPad Software, Inc.; San Diego, CA, USA). […] For CBR screening studies, a one-sample t-test was performed to determine differences from 100% (e.g., to quantify compounds producing displacement), followed by a one-way ANOVA and Tukey’s post hoc tests to compare displacement produced by all drugs. […] To compare specific CBR affinity (Ki) between ligands, non-linear regression analysis was employed to determine experimental IC50 values from competition receptor binding assays, which were then converted to Ki values using the Cheng–Prusoff equation [35]. Ki values were converted to pKi values so that parametric tests could be used and statistically compared by employing a one-way ANOVA followed by Tukey’s post hoc test. For statistical analyses of [^35S]GTPγS, adenylyl cyclase, and chronic experiments, a one-sample t-test was performed to detect differences from 100% (e.g., basal levels), followed by comparison of all means by a one-way ANOVA and Tukey’s post hoc test. For LDH release, ATP-dependent cell viability and JC-1 staining assays, drug effects were first analyzed by a one-sample t-test to determine differences from 0 or 100% (vehicle), followed by a one-way ANOVA and Dunnett’s post hoc test to compare all means. Significance for all statistical tests was defined at a minimal level of p < 0.05.

[3] = target: CBRs expressed in PC-3 membranes; format: binding, human
Description: as §1, §2

[4] = tested on: CBRs expressed in PC-3 cells; experiment: Adenylyl cyclase modulation in whole PC-3 cells; format: cell-based, human; settings: 10 μM, with or without pertussis toxin
Description: (§3) These experiments were conducted to examine modulation of adenylyl cyclase activity by cannabinoid ligands in prostate cancer cell lines DU-145 and PC-3, as described earlier. CHO-hCB2, DU-145, or PC-3 cells were seeded into 24 well plates at a density of 8 × 10^6 cells per plate in growth media (DMEM for DU-145 and CHO-hCB2 cells or F12-K for PC-3 cells). Growth media contained FetalPlex (10%) and 1% pennicillin/streptomycin. Cells were cultured overnight in a humidified incubator maintained at 37 °C with 5% CO2. For some experiments, a subset of wells were treated overnight with pertussis toxin (2 μL/mL) to abolish Gi/Go protein-mediated signaling. Following overnight incubation, growth media was replaced with an incubation media containing either DMEM (for DU-145 and CHO-hCB2) or F12-K (for PC-3) with 0.9 g/l NaCl, 2.5 μCi/mL of [^3H]adenine, and 0.5 mM IBMX, and cells were kept in a humidified incubator maintained at 37 °C with 5% CO2 for 4 h. […] Finally, 10 mL of Scintiverse^TM BD Cocktail scintillation fluid (Fisher Scientific; Hampton, NH, USA) was added to eluates and radioactivity (quantified as DPMs) was quantified via a liquid scintillation spectrophotometer (Tri Carb 2100 TR Liquid Scintillation Analyzer, Packard Instruments, Meriden, CT, USA).

[5] = tested on: CBRs expressed in DU-145 cells; experiment: Adenylyl cyclase modulation in whole DU-145 cells; format: cell-based, human; settings: 10 μM, with or without pertussis toxin
Description: as §3

DU-145 cells = experiment: Mitochondrial membrane potential (JC-1 staining), DU-145 cells; format: cell-based, human; settings: 24 h; for mitochondrial membrane potential (MMP) depolarization: JC-1

SMILES	displacement of [^3H]WIN-55,212-2 [1]	Ki [2]	pKi (−log Ki) [2]	Ki [3] [nM]	pKi (−log Ki) [3]	displacement of [^3H]WIN-55,212-2 ([1]; 1 μM ligand, 1 nM radioligand, DU-145 membranes)	change in forskolin-stimulated intracellular cAMP levels [4]	change in forskolin-stimulated intracellular cAMP levels [5]	mitochondrial membrane potential (MMP) depolarization (DU-145 cells; 10 μM)	mitochondrial membrane potential (MMP) depolarization (DU-145 cells; 50 μM)	MMP on co-incubation with GW-405833 (10 μM) (DU-145 cells; 10 μM ligand co-incubated)
COc1ccc2c(c1)c(CCN1CCOCC1)c(C)n2C(=O)c1cccc(Cl)c1Cl [GW-405833]	greater than 50%	~290 nM and 290 nM	6.5 ± 0.12 ^b	296	6.47 ± 0.17 ^b	–	–	–	–	–	–
Cc1c(C(=O)c2cccc3ccccc23)c2cccc3c2n1[C@H](CN1CCOCC1)CO3 [WIN-55,212-2]	–	–	–	–	–	significantly displaced; also recorded: complete displacement	neither WIN-55-212-2 nor rimonabant significantly altered intracellular cAMP levels	neither WIN-55-212-2 nor rimonabant significantly altered intracellular cAMP levels	produced effects only at 50 μM	produced effects only at 50 μM	–
Cc1c(C(=O)NN2CCCCC2)nn(-c2ccc(Cl)cc2Cl)c1-c1ccc(Cl)cc1 [rimonabant]	greater than 50%	102 nM	7.04 ± 0.15 ^a	54.1	–	–	neither WIN-55-212-2 nor rimonabant significantly altered intracellular cAMP levels	neither WIN-55-212-2 nor rimonabant significantly altered intracellular cAMP levels	reduced MMP	–	MMP was not significantly reduced from vehicle-treated levels
